{"source": "patent US10307458B2", "about": "“Peptide as absorption enhancer and composition containing same” (SOONCHUNHYANG UNIVERSITY INDUSTRY ACADEMY COOPERATION …, priority 2014, dated 2019)", "key": {"[1]": {"assay": "in vivo", "conditions": "male, Sprague-Dawley, rat, in vivo, inhaled or intranasal, 2.5 mg/kg", "procedure": "(§1) Male SD (Sprague-Dawley) rats (280-300 g) were provided to adapt to each separate cage of the animal facility at least 2 days. At this point, foods and water were freely allowed to the rats, which were exposed to light for 12 hours and kept in dark for another 12 hours. One day before the testing, the rats were provided with water only and kept from eating food.\n(§2) The peptides of the Preparation Examples or the Example, and mannitol(^3H-Mannitol, 14.2 Ci/mmol, PerkinElmer) were used to prepare the individual preparation groups given as follows:\n(§3) The first preparation group was a control group and prepared as an aqueous solution of 5% (w/v) dextrose containing mannitol without a peptide.\n(§4) The second preparation group was prepared as an aqueous solution of 5% (w/v) dextrose containing mannitol and the FCIGRL peptide of the Preparation Example 1.\n(§5) The third preparation group was prepared as an aqueous solution of 5% (w/v) dextrose containing mannitol and the Ac-FCIGRL peptide of the Preparation Example 2.\n(§6) The fourth preparation group was prepared as an aqueous solution of 5% (w/v) dextrose containing mannitol and the FCIGRL-NH2 peptide of the Example 1.\n(§7) The male SD rats provided above 1. were divided into four groups, each having five male SD rats. The first to fourth preparation groups were nasally administered into the first to fourth rat groups, respectively.\n(§8) At this point, the dosage of each solution was 70 μl per rat, where the dosages of mannitol and each peptide were 20 μCi/kg and 2.5 mg/kg, respectively.\n(§9) Prior to the nasal administration, each rat was anesthetized to implant a cannula into the jugular vein of it. The solution was taken into the nostrils of the rat through a micropipette (Eppendorf) with caution as not to affect the nasal mucous membrane, while the rat was lying on the back to rest its head sideways against the wall.\n(§10) 250 μl of blood was collected from each rat in 10, 20, 40, 60, 120, 180, 240 and 360 minutes after administration of the solution through jugular vein cannulation. The blood was subjected to centrifugal separation at 13,000 rpm for 10 minutes to obtain 100 μl of plasma. A scintillation cocktail solution was added to the plasma. Then, an LS6500 Universal counter (Beckman Coulter, Brea, Calif., USA) was used to measure the radiation quantity for the quantitative analysis of mannitol.\n(§11) The mannitol concentration in blood from the rats of each group is graphed in FIG. 1. Table 1 presents the pharmacokinetic parameters, that is, AUC, Cmax, Tmax, and T1/2 of mannitol."}, "[2]": {"tested_on": "nasal mucous membrane", "assay": "Nasal administration of 3H-mannitol with or without peptide to rats; mannitol concentration in blood (mucous membrane permeability)", "conditions": "nasal, rats, peptide 2.5 mg/kg", "procedure": "as §1, §2, §3, §4, §5, §6, §7, §8, §9, §10, §11"}, "[3]": {"conditions": "preparation group containing mannitol and the peptide, for nasal administration"}, "[4]": {"conditions": "buffer solution that is slightly acid (pH 5.0), neutral, and basic; cited from earlier work"}}, "note": "Where no end group is shown, it is not given here."}
{"compound": "OC[C@@H](O)[C@@H](O)[C@H](O)[C@H](O)CO", "note": "[Mannitol, mannitol]", "values": [{"measurement": "AUC(0-t)", "setting": "[1]", "value": 0.101, "unit": "ng·h/mL"}, {"measurement": "Cmax", "setting": "[1]", "value": "0.0306 ± 0.00602", "unit": "ng/mL"}, {"measurement": "Tmax", "setting": "[1]", "value": 0.583, "unit": "h"}, {"measurement": "half-life", "setting": "[1]", "value": "3.59 ± 0.0515", "unit": "h"}]}
{"compound": "Ac-FCIGRL [Ac-FCIGRL]", "values": [{"measurement": "difference in the blood mannitol concentration versus mannitol alone", "setting": "[2]", "value": "no significant difference"}]}
{"compound": "Ac-FCIGRL-NH2 [Ac-FCIGRL-NH2]", "values": [{"measurement": "solubility of the peptide", "setting": "[3]", "value": "such a low solubility of the peptide as to make nasal administration of the peptide impossible"}]}
{"compound": "FCIGRL-NH2 [FCIGRL-NH2]", "values": [{"measurement": "AUC0-360min of mannitol relative to the administration group of mannitol alone", "setting": "[2]; p<0.01", "value": 3.63, "unit": "times"}, {"measurement": "Cmax of mannitol relative to the administration group of mannitol alone", "setting": "[2]; p<0.01", "value": 2.68, "unit": "times"}]}
{"compound": "H-FCIGRL-OH [FCIGRL, Phe-Cys-Ile-Gly-Arg-Leu]", "values": [{"measurement": "maintenance of the intact form of peptide over time", "setting": "[4]", "value": "cannot maintain the intact form of peptide over time"}, {"measurement": "difference in the blood mannitol concentration versus mannitol alone", "setting": "[2]", "value": "no significant difference"}]}
